Legend:
[1] = tested on: DU-145; test: Inhibition of colony formation in human DU-145 cells assessed as suppression of colony formation measured after 2 weeks by crystal violet staining based analysis; assay type: functional, cell-based; conditions: dose 0.4-3.2 µM
[2] = target: Histone deacetylase 3 (Homo sapiens, UniProt O15379); test: Inhibition of human HDAC3 incubated for 10 mins followed by fluorogenic substrate addition by fluorescence based analysis
[3] = tested on: DU-145; test: Upregulation of Ac-H3 level in human DU-145 cells incubated for 24 hrs by Western blot analysis; assay type: functional, cell-based; conditions: dose 0.8-3.2 µM
[4] = tested on: MDA-MB-231; test: Antiproliferative activity against human MDA-MB-231 cells incubated for 96 hrs by MTT assay; assay type: functional, cell-based; conditions: MDA-MB-231, 96 h
[5] = target: Histone deacetylase 4 (Homo sapiens, UniProt P56524); test: Inhibition of human HDAC4 incubated for 10 mins followed by fluorogenic substrate addition by fluorescence based analysis
Sequence of Histone deacetylase 4 (P56524 whole entry): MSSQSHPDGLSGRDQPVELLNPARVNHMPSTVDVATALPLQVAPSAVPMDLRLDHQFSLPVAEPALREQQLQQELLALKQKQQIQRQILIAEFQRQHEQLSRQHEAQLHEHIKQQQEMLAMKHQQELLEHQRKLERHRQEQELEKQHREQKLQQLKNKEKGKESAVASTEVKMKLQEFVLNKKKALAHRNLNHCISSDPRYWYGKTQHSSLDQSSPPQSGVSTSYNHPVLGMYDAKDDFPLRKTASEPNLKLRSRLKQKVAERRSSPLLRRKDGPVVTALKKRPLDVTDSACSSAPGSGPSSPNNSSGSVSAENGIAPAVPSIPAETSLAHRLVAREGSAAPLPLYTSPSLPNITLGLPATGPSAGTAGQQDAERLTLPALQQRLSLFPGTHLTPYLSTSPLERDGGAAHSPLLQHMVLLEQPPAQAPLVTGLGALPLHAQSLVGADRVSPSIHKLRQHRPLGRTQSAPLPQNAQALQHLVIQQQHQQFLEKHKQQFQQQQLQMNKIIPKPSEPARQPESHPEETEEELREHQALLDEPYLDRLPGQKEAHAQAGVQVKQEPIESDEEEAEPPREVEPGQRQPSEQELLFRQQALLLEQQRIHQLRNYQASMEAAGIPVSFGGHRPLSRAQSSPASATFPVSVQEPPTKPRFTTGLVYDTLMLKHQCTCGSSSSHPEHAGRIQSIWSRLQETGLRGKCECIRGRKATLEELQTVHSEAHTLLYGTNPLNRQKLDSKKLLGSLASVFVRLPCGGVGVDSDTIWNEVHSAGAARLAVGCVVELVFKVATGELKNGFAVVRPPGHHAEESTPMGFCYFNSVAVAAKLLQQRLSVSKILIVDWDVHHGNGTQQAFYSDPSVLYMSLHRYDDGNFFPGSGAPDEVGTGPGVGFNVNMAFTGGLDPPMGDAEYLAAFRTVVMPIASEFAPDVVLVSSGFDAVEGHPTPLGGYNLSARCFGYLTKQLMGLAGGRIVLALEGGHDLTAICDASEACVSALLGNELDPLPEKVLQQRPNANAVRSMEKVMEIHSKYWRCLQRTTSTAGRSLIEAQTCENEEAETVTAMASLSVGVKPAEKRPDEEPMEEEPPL

[6] = target: Histone deacetylase 1 (Homo sapiens, UniProt Q13547); test: Inhibition of human HDAC1 incubated for 10 mins followed by fluorogenic substrate addition by fluorescence based analysis
Sequence of Histone deacetylase 1 (Q13547 whole entry): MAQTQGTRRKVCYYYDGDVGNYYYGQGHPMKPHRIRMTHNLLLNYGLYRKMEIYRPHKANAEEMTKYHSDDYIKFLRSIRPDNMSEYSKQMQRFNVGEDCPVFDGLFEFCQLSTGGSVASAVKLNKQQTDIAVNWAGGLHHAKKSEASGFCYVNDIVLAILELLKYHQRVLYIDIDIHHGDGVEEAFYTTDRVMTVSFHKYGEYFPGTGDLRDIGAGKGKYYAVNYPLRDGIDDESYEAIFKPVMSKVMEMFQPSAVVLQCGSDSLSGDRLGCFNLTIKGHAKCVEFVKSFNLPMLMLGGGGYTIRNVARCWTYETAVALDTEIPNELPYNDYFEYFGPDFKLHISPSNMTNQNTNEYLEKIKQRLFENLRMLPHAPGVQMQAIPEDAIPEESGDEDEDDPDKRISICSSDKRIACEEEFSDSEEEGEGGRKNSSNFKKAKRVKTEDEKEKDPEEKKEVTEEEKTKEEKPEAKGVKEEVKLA

[7] = tested on: DU-145; test: Upregulation of histone H3 level in human DU-145 cells incubated for 24 hrs by Western blot analysis; assay type: functional, cell-based; conditions: dose 0.8-3.2 µM
[8] = Toxicity in Balb/c mouse assessed as effect on body weight at 100 mg/kg, po measured upto 40 days in presence of docetaxel; assay type: organism-based; conditions: in vivo, 960 h, time < 40 day
[9] = target: Histone deacetylase 7 (Homo sapiens, UniProt Q8WUI4); test: Inhibition of human HDAC7 incubated for 10 mins followed by fluorogenic substrate addition by fluorescence based analysis
[10] = Acute toxicity in Sprague-Dawley rat assessed as effect on kidney at 500 to 4500 mg/kg, po measured after 15 days; assay type: organism-based; conditions: in vivo, 360 h, dose 500-4500 mg/kg, time 15 day
[11] = Clearance in Sprague-Dawley rat at 2 mg/kg, iv measured upto 24 hrs by LC-MS/MS analysis; assay type: ADME, organism-based; conditions: in vivo
[12] = target: Histone deacetylase 9 (Homo sapiens, UniProt Q9UKV0); test: Inhibition of human HDAC9 incubated for 10 mins followed by fluorogenic substrate addition by fluorescence based analysis
Sequence of Histone deacetylase 9 (Q9UKV0 whole entry): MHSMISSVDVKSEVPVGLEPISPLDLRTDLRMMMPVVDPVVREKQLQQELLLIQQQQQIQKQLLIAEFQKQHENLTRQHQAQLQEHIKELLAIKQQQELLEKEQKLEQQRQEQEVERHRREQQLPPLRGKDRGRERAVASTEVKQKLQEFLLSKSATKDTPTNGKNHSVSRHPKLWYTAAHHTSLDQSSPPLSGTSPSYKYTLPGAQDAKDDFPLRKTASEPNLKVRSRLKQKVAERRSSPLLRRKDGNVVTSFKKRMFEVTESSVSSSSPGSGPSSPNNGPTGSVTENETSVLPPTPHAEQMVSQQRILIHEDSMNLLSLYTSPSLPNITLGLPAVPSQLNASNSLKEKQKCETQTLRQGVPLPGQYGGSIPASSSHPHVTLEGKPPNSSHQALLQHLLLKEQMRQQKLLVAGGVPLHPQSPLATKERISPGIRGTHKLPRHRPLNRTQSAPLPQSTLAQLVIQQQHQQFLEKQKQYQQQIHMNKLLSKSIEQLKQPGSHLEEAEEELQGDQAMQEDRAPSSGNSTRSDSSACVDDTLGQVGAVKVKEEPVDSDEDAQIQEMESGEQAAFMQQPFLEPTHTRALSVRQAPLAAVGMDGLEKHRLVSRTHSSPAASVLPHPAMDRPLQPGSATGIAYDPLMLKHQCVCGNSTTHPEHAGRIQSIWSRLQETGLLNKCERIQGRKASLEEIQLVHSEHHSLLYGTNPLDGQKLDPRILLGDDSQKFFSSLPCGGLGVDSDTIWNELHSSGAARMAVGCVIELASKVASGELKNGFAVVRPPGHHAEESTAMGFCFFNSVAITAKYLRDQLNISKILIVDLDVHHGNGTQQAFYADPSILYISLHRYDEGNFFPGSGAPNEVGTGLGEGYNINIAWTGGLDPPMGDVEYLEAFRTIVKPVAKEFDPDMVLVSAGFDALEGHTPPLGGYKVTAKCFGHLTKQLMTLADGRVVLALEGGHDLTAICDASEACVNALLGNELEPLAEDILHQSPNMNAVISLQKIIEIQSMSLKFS

[13] = Half life in Sprague-Dawley rat at 2 mg/kg, iv measured upto 24 hrs by LC-MS/MS analysis; assay type: ADME, organism-based; conditions: in vivo
[14] = target: Histone deacetylase 2 (Homo sapiens, UniProt Q92769); test: Inhibition of human HDAC2 incubated for 10 mins followed by fluorogenic substrate addition by fluorescence based analysis
Sequence of Histone deacetylase 2 (Q92769 whole entry): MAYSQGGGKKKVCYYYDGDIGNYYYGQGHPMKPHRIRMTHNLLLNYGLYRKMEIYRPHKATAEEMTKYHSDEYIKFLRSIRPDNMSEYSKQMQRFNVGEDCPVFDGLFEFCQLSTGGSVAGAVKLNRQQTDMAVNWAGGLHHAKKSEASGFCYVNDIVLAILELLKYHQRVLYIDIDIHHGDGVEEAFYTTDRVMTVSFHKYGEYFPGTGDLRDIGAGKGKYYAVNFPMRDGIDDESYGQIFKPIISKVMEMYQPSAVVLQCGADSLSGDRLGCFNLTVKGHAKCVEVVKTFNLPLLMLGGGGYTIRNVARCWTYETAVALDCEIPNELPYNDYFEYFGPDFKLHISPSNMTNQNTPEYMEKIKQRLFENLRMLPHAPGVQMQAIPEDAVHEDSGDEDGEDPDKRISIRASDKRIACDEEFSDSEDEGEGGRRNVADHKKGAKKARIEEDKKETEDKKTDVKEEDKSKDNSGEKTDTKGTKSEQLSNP

[15] = tested on: PC-3; test: Antiproliferative activity against human PC-3 cells incubated for 96 hrs by MTT assay; assay type: functional, cell-based; conditions: PC-3, 96 h
[16] = tested on: HT-29; test: Antiproliferative activity against human HT-29 cells incubated for 96 hrs by MTT assay; assay type: functional, cell-based; conditions: HT-29, 96 h
[17] = tested on: DU-145; test: Induction of cell cycle arrest in human DU-145 cells assessed as increase in accumulation of cells at G2/M phase incubated for 24 hrs by PI staining based flow cytometry analysis; assay type: functional; conditions: dose 0.4-3.2 µM
[18] = AUC (0 to infinity) in Sprague-Dawley rat at 2 mg/kg, iv measured upto 24 hrs by LC-MS/MS analysis; assay type: ADME, organism-based; conditions: in vivo
[19] = tested on: DU-145; test: animal or person; assay type: functional, Homo sapiens; conditions: Mus musculus, DU-145, 960 h, route po, time 40 day, read-out: TGI
Description: Antitumor activity against human DU-145 cells xenografted in Balb/c nude mouse model assessed as tumor growth inhibition at 100 mg/kg, po administered once daily for 40 days relative to control

[20] = Half life in Sprague-Dawley rat at 10 mg/kg, po measured upto 24 hrs by LC-MS/MS analysis; assay type: ADME, organism-based; conditions: in vivo
[21] = tested on: HCT-116; test: Antiproliferative activity against human HCT-116 cells incubated for 96 hrs by MTT assay; assay type: functional, cell-based; conditions: HCT-116, 96 h
[22] = tested on: NCI-H1650; test: Antiproliferative activity against human NCI-H1650 cells incubated for 96 hrs by MTT assay; assay type: functional, cell-based; conditions: NCI-H1650, 96 h
[23] = Acute toxicity in Sprague-Dawley rat assessed as effect on liver at 500 to 4500 mg/kg, po measured after 15 days; assay type: organism-based; conditions: in vivo, 360 h, dose 500-4500 mg/kg, time 15 day
[24] = tested on: DU-145; test: Induction of apoptosis in human DU-145 cells assessed as apoptotic rate at 1.6 uM measured after 72 hrs by annexin V-FITC and PI staining based flow cytometry analysis relative to control; assay type: functional
[25] = Acute toxicity in female Sprague-Dawley rat assessed as effect on body weight at 500 to 4500 mg/kg, po measured every 3 days for 15 days; assay type: organism-based; conditions: in vivo, 360 h, dose 500-4500 mg/kg, time 15 day
[26] = tested on: A549; test: Antiproliferative activity against human A549 cells incubated for 96 hrs by MTT assay; assay type: functional, cell-based; conditions: A549, 96 h
[27] = tested on: DU-145; test: Induction of apoptosis in human DU-145 cells measured after 72 hrs by annexin V-FITC and PI staining based flow cytometry analysis; assay type: functional, cell-based; conditions: dose 0.4-1.6 µM
[28] = tested on: DU-145; test: Antitumor activity against human DU-145 cells xenografted in Balb/c nude mouse model assessed as tumor growth inhibition at high dose administered as po once daily for 40 days relative to control; assay type: functional; conditions: time 40 day
[29] = tested on: DU-145; test: Induction of apoptosis in human DU-145 cells assessed as apoptotic rate at 0.8 uM measured after 72 hrs by annexin V-FITC and PI staining based flow cytometry analysis (reference value: 3.41%); assay type: functional
[30] = Cmax in Sprague-Dawley rat at 2 mg/kg, iv measured upto 24 hrs by LC-MS/MS analysis; assay type: ADME, organism-based; conditions: in vivo
[31] = tested on: LNCaP; test: Antiproliferative activity against human LNCaP cells incubated for 96 hrs by MTT assay; assay type: functional, cell-based
[32] = target: Histone deacetylase 5 (Homo sapiens, UniProt Q9UQL6); test: Inhibition of human HDAC5 incubated for 10 mins followed by fluorogenic substrate addition by fluorescence based analysis
[33] = tested on: DU-145; test: Inhibition of colony formation in human DU-145 cells assessed as suppression of colony formation at 3.2 uM measured after […] by crystal violet staining based analysis relative to control; assay type: functional
[34] = Cmax in Sprague-Dawley rat at 10 mg/kg, po measured upto 24 hrs by LC-MS/MS analysis; assay type: ADME, organism-based; conditions: in vivo
[35] = Acute toxicity in Sprague-Dawley rat assessed as effect on heart at 500 to 4500 mg/kg, po measured after 15 days; assay type: organism-based; conditions: in vivo, 360 h, dose 500-4500 mg/kg, time 15 day
[36] = target: Protein deacetylase HDAC6 (Homo sapiens, UniProt Q9UBN7); test: Inhibition of human HDAC6 incubated for 10 mins followed by fluorogenic substrate addition by fluorescence based analysis
Sequence of Protein deacetylase HDAC6 (Q9UBN7 whole entry): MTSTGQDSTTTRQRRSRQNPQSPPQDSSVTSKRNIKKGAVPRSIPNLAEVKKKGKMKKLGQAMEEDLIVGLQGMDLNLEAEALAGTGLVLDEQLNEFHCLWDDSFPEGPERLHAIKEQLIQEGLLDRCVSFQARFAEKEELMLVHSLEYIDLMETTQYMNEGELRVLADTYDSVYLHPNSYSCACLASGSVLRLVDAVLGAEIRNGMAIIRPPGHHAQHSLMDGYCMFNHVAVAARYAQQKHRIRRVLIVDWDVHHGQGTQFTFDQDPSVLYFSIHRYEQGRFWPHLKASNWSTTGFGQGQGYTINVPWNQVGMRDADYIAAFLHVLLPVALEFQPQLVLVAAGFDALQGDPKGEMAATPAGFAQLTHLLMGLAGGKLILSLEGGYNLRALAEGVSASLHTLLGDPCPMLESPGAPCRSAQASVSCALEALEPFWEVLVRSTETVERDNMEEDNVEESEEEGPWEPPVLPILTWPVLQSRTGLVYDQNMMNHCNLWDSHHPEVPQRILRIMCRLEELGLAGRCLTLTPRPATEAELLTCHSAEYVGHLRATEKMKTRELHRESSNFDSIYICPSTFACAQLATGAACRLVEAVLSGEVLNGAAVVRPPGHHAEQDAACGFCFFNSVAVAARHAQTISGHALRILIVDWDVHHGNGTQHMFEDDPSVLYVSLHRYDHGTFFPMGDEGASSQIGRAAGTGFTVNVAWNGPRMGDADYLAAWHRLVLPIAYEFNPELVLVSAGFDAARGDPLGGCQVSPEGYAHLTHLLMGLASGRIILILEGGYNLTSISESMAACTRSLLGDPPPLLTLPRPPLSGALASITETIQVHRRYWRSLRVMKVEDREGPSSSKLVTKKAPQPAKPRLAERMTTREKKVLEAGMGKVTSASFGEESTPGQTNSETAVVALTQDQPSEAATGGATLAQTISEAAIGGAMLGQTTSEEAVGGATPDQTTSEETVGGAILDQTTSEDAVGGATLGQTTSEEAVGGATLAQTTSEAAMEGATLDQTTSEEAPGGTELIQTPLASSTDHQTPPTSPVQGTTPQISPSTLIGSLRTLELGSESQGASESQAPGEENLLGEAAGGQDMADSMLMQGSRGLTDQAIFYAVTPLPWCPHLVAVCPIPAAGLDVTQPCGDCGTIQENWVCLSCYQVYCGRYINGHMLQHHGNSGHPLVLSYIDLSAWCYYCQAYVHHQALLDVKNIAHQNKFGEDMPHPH

[37] = Acute toxicity in male Sprague-Dawley rat assessed as effect on body weight at 500 to 4500 mg/kg, po measured every 3 days for 15 days; assay type: organism-based; conditions: in vivo, 360 h, dose 500-4500 mg/kg, time 15 day
[38] = Acute toxicity in Sprague-Dawley rat assessed as effect on lung at 500 to 4500 mg/kg, po measured after 15 days; assay type: organism-based; conditions: in vivo, 360 h, dose 500-4500 mg/kg, time 15 day
[39] = tested on: NCI-H446; test: Antiproliferative activity against human NCI-H446 cells incubated for 96 hrs by MTT assay; assay type: functional, cell-based; conditions: NCI-H446, 96 h
[40] = tested on: DU-145; test: Inhibition of cell migration in human DU-145 cells assessed as suppression of wound closure incubated for 12 hrs by wound healing assay; assay type: functional, cell-based; conditions: dose 0.2-1.6 µM
[41] = tested on: DU-145; test: Antitumor activity against human DU-145 cells xenografted in Balb/c nude mouse model assessed as tumor growth inhibition at 100 mg/kg, po administered once daily for 40 days in presence of docetaxel relative to control; assay type: functional; conditions: DU-145, 960 h, time 40 day, read-out: TGI

Sequence of Histone deacetylase 3 (O15379 whole entry): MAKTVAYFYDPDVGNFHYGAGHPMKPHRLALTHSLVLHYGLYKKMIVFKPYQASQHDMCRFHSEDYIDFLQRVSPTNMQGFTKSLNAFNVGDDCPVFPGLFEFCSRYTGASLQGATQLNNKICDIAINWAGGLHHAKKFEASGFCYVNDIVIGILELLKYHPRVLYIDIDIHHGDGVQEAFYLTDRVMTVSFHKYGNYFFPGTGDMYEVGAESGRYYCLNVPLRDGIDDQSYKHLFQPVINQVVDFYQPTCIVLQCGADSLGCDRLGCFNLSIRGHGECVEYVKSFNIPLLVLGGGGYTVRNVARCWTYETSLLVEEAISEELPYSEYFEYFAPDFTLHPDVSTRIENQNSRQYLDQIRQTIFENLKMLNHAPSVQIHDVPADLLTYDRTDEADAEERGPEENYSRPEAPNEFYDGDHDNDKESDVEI

COc1ccccc1/C=C1\CC(=O)N(CCCCCCC(=O)NO)C1=O
inhibition [1]: Dose-Dependent Effect | IC50 [2]: 0.02 µM | Activity [3]: Dose-Dependent Effect | IC50 [4]: 0.31 µM | IC50 [5]: > 5 µM | IC50 [6]: 0.0126 µM | Activity [7]: Dose-Dependent Effect | Activity [8]: Non-Toxic | IC50 [9]: > 5 µM | Activity [10]: Non-Toxic | clearance [11]: 1.57 L/h/kg | IC50 [12]: > 5 µM | half-life [13]: 3.12 h | IC50 [14]: 0.0141 µM | IC50 [15]: 0.72 µM | IC50 [16]: 1.05 µM | Activity [17]: Dose-Dependent Effect | AUC(0-inf) [18]: 1.63 µg·h/mL | inhibition in vivo at 100 mg/kg [19]: 50.9% | half-life [20]: 2.87 h | IC50 [21]: 0.47 µM | IC50 [22]: 3.56 µM | Activity [23]: Non-Toxic | Activity [24]: 59.87% | Activity [25]: Non-Toxic | IC50 [26]: 1.39 µM | Activity [27]: Dose-Dependent Effect | TGI [28]: 68% | Activity [29]: 27.45% | Cmax [30]: 0.852 µg/mL | IC50 [31]: 0.63 µM | IC50 [32]: > 5 µM | inhibition at 3.2 µM [33]: 100% | Cmax [34]: 0.774 µg/mL | Activity [35]: Non-Toxic | IC50 [36]: 0.003 µM | Activity [37]: Non-Toxic | Activity [38]: Non-Toxic | IC50 [39]: 0.65 µM | inhibition [40]: Dose-Dependent Effect | inhibition in vivo at 100 mg/kg [41]: 71.4%

Reference: ChEMBL document CHEMBL5512640, “Discovery of novel itaconimide-based derivatives as potent HDAC inhibitors for the efficient treatment of prostate cancer” (Eur J Med Chem, 2024)
